Data from paper PMC8175851, “Effects of Genetic Polymorphism in CYP2D6, CYP2C19, and the Organic Cation Transporter OCT1 on Amitriptyline Pharmacokinetics in Healthy Volunteers and Depressive Disorder Patients” (Frontiers in Pharmacology, 2021).
Where two headings read alike, the source gives them in different places.

Assay: Pharmacokinetics of AT and NT in healthy volunteers after a single dose of 25 mg amitriptyline
Format: in vivo, human
Settings: human, plasma, po, 25 mg, single oral 25 mg AT; for Cmax: read-out: Cmax
From the text: In order to enrich the study sample with the less frequent functionally deficient OCT1 variants, participants were selected based on OCT1 genotype from an internal database at the Institute of Clinical Pharmacology of the University Medical Center Göttingen. All volunteers who are listed in the internal database had agreed to it and the database was approved by the ethics committee of the University of Göttingen. […] Additional subjects with heterozygous genotypes were included to provide a better understanding of the effects of specific variants and the mode of inheritance. All volunteers gave their written informed consent before participation in the study. The study was approved by the ethics committee of the University of Göttingen and the German Federal Institute for Drugs and Medical Devices (BfArM). It was registered at the clinical trials databases Clinicaltrials.gov (NCT02054299) and EudraCT (number 2012-003546-33). […] Volunteers who underwent regular drug treatments other than oral contraceptives or who suffered from any relevant chronic illness, as well as pregnant or lactating women, were not included. All subjects were healthy according to a detailed medical history, medical examination, electrocardiogram, urine status and clinical chemistry, and haematology parameters (sodium, potassium, total bilirubin, aspartate aminotransferase, alanine-aminotransferase, creatinine, C-reactive protein, thyroid-stimulating hormone, haemoglobin, erythrocyte, thrombocyte, and leucocyte counts). […] After centrifugation (13,000 rpm, 15 min, room temperature), two-thirds of the supernatant were transferred to a new reaction tube and evaporated at 40°C under nitrogen flow. The residue was reconstituted under shaking in 0.1% methanoic acid and briefly centrifuged before quantification using a Nexera UHPLC system (Shimadzu, Kyoto, Japan) coupled to an API 4000 tandem mass spectrometer (AB Sciex, Darmstadt, Germany). […] PerkinElmer, Rodgau, Germany) with a Phenomenex C18 pre-column (4 × 2 mm, Phenomenex, Aschaffenburg, Germany). […] The lower limit of quantification was 0.5 ng/ml for AT and 0.1 ng/ml for NT. […] The mass spectrometry detection parameters are listed in Supplementary Table S1. For the study in healthy volunteers, the primary endpoints were the AUCs of plasma AT and NT concentrations. Secondary endpoints were the other pharmacokinetic parameters of AT and NT, as well as heart rate, blood pressure, pupil size effects, and possible adverse events (headache, fatigue, visual or hearing impairments, restlessness, nausea, dizziness, dry mouth, tremor, as well as sensations of hypothermia and heart palpitations determined using a visual analogue scale test). Pharmacokinetic parameters were calculated by non-compartmental analysis using Phoenix 64 WinNonlin version 6.3 (Certara Inc., Princeton, NJ, United States). AUCinf of AT was calculated from the time of dosing using the linear/log trapezoidal rule and extrapolated to infinity based on the last predicted concentration and using the terminal elimination rate constant (lambda z). AUC of NT was calculated from the time of dosing until the last measurement at 48 h using the linear/log trapezoidal rule, as a decline in NT concentrations was not observed in some subjects and extrapolation to infinity thus not possible.

[1] = both sexes, healthy volunteers, 0 active OCT1 alleles (n = 12)
[2] = both sexes, healthy volunteers, 1 active OCT1 allele (n = 9)
[3] = both sexes, healthy volunteers, 2 active OCT1 alleles (n = 14)
[4] = both sexes, healthy volunteers, CYP2C19 activity score 1 (n = 5), mean
[5] = both sexes, healthy volunteers, CYP2C19 activity score 1.5 (n = 2), mean
[6] = both sexes, healthy volunteers, CYP2C19 activity score 2 (n = 16), mean
[7] = both sexes, healthy volunteers, CYP2C19 activity score 2.5 (n = 10), mean
[8] = both sexes, healthy volunteers, CYP2D6 activity 0 (n = 3), mean
[9] = both sexes, healthy volunteers, CYP2D6 activity 0.5 (n = 2), mean
[10] = both sexes, healthy volunteers, CYP2D6 activity 1 (n = 10), mean
[11] = both sexes, healthy volunteers, CYP2D6 activity 1.5 (n = 6), mean
[12] = both sexes, healthy volunteers, CYP2D6 activity 2 (n = 11), mean
[13] = both sexes, healthy volunteers, CYP2D6 activity 2.5 (n = 1), mean
[14] = both sexes, healthy volunteers, CYP2D6 activity 3 (n = 2), mean
[15] = healthy volunteers, CYP2C19 activity score 0 (n = 1), mean
[16] = healthy volunteers, CYP2C19 activity score 3 (n = 1), mean

In the case of `CNCCC=C1c2ccccc2CCc2ccccc21` [Nortriptyline, nortriptyline], the AUC(0-t) (both sexes, 35 healthy volunteers, read-out: AUC48h (range over all volunteers)) is reported as 39.3 to 284 ng·h/mL, the AUC(0-t) (both sexes, healthy volunteers, 0 active OCT1 alleles (n = 12), read-out: AUC48h) is reported as 90.2 ± 27.1 ng·h/mL and the Cmax [1] is reported as 2.7 ± 0.7 ng/mL. The AUC(0-t) (both sexes, healthy volunteers, 1 active OCT1 allele (n = 9), read-out: AUC48h) was 88.3 ± 32.2 ng·h/mL, the Cmax [2] was 2.6 ± 0.9 ng/mL and the AUC(0-t) (both sexes, healthy volunteers, 2 active OCT1 alleles (n = 14), read-out: AUC48h) was 126 ± 63.5 ng·h/mL. The Cmax [3] was 3.4 ± 1.4 ng/mL, the AUC(0-t) (both sexes, healthy volunteers, CYP2C19 activity score 1 (n = 5), mean, read-out: AUC48h) was 69.4 ng·h/mL and the Cmax [4] was 2.1 ng/mL. It also gave an AUC(0-t) (both sexes, healthy volunteers, CYP2C19 activity score 1.5 (n = 2), mean, read-out: AUC48h) of 123 ng·h/mL, a Cmax [5] of 3.5 ng/mL and an AUC(0-t) (both sexes, healthy volunteers, CYP2C19 activity score 2 (n = 16), mean, read-out: AUC48h) of 103 ng·h/mL. For the same compound, the Cmax [6] was 3 ng/mL, the AUC(0-t) (both sexes, healthy volunteers, CYP2C19 activity score 2.5 (n = 10), mean, read-out: AUC48h) was 108 ng·h/mL and the Cmax [7] was 3.1 ng/mL. It also gave an AUC(0-t) (both sexes, healthy volunteers, CYP2D6 activity 0 (n = 3), mean, read-out: AUC48h) of 145 ng·h/mL, a Cmax [8] of 3.48 ng/mL and an AUC(0-t) (both sexes, healthy volunteers, CYP2D6 activity 0.5 (n = 2), mean, read-out: AUC48h) of 222 ng·h/mL. For the same compound, the Cmax [9] was 5.54 ng/mL, the AUC(0-t) (both sexes, healthy volunteers, CYP2D6 activity 1 (n = 10), mean, read-out: AUC48h) was 104 ng·h/mL and the Cmax [10] was 2.94 ng/mL. It also gave an AUC(0-t) (both sexes, healthy volunteers, CYP2D6 activity 1.5 (n = 6), mean, read-out: AUC48h) of 98.3 ng·h/mL, a Cmax [11] of 2.79 ng/mL and an AUC(0-t) (both sexes, healthy volunteers, CYP2D6 activity 2 (n = 11), mean, read-out: AUC48h) of 81.8 ng·h/mL. The Cmax [12] was 2.57 ng/mL, the AUC(0-t) (both sexes, healthy volunteers, CYP2D6 activity 2.5 (n = 1), mean, read-out: AUC48h) was 89.1 ng·h/mL and the Cmax [13] was 3.11 ng/mL. It also gave an AUC(0-t) (both sexes, healthy volunteers, CYP2D6 activity 3 (n = 2), mean, read-out: AUC48h) of 71.1 ng·h/mL, a Cmax [14] of 2.49 ng/mL and a Tmax [1] of 6.2 ± 1.4 h. It also gave a half-life [1] of 46.1 ± 24.4 h, a Tmax [2] of 6.7 ± 1.3 h and a half-life [2] of 56.4 ± 31.3 h. The Tmax [3] was 11.5 ± 8.7 h, the half-life [3] was 40.1 ± 38.2 h and the Tmax [4] was 6 h. For the same compound, the half-life [4] was 48.2 h, the Tmax [5] was 14.1 h and the half-life [5] was 25.1 h. For the same compound, the Tmax [6] was 6.6 h, the half-life [6] was 47.7 h and the Tmax [7] was 9.9 h. For the same compound, the half-life [7] was 44.1 h, the Tmax [8] was 18.9 h and the half-life [8] was 92 h. The Tmax [9] was 15.5 h, the half-life [9] was 105 h and the Tmax [10] was 6.2 h. It also gave a half-life [10] of 64.2 h, a Tmax [11] of 7 h and a half-life [11] of 51.9 h. The Tmax [12] was 7.7 h, the half-life [12] was 29.9 h and the Tmax [13] was 6 h. The half-life [13] was 25 h, the Tmax [14] was 6 h and the half-life [14] was 26.9 h. For the same compound, the AUC(0-t) (both sexes, healthy volunteers, OCT1 genotype *1 / *1 (n 14), mean ± standard deviation, read-out: AUC48h) was 126 ± 63 ng·h/mL, the AUC(0-t) (both sexes, healthy volunteers, OCT1 genotype *1 / *2 (n 3), mean ± standard deviation, read-out: AUC48h) was 115 ± 24 ng·h/mL and the AUC(0-t) (both sexes, healthy volunteers, OCT1 genotype *1 / *3 (n 4), mean ± standard deviation, read-out: AUC48h) was 78 ± 34 ng·h/mL. For the same compound, the AUC(0-t) (both sexes, healthy volunteers, OCT1 genotype *1 / *4 (n 2), mean ± standard deviation, read-out: AUC48h) was 69 ± 17 ng·h/mL, the AUC(0-t) (both sexes, healthy volunteers, OCT1 genotype *2 / *2 (n 3), mean ± standard deviation, read-out: AUC48h) was 109 ± 45 ng·h/mL and the AUC(0-t) (both sexes, healthy volunteers, OCT1 genotype *2 / *3 (n 4), mean ± standard deviation, read-out: AUC48h) was 90 ± 27 ng·h/mL. It also gave an AUC(0-t) (both sexes, healthy volunteers, OCT1 genotype *2 / *5 (n 1), read-out: AUC48h) of 83 ng·h/mL, an AUC(0-t) (both sexes, healthy volunteers, OCT1 genotype *3 / *3 (n 3), mean ± standard deviation, read-out: AUC48h) of 77 ± 11 ng·h/mL and an AUC(0-t) (both sexes, healthy volunteers, OCT1 genotype *3 / *4 (n 1), read-out: AUC48h) of 78 ng·h/mL. It also gave an AUC(0-t) (healthy volunteers, CYP2C19 activity score 0 (n = 1), mean, read-out: AUC48h) of 39.3 ng·h/mL, a Cmax [15] of 1.05 ng/mL and an AUC(0-t) (healthy volunteers, CYP2C19 activity score 3 (n = 1), mean, read-out: AUC48h) of 284 ng·h/mL. The Cmax [16] was 6.5 ng/mL, the Tmax [15] was 6 h and the half-life [15] was 106 h. It also gave a Tmax [16] of 24.9 h and a half-life [16] of 145 h.
